Measured values from ChEMBL document CHEMBL3046147, “Synthesis and Herbicidal Activity of 1-Arylalkyl-3-pyrrolin-2-one Derivatives” (J Pestic Sci, 2000).

Assays:
Echinochloa oryzicola [1] = experiment: Pre-emergence herbicide activity against Echinochloa oryzicola under greenhouse condition measured after 14 to 20 days; assay type: functional
Oryza sativa [2] = experiment: Phytotoxicity against two-leaf stage Oryza sativa cv. Nihonbare (rice) planted 1 cm depth measured after […]; assay type: organism-based; conditions: in vivo
Oryza sativa [3] = experiment: Phytotoxicity against two-leaf stage Oryza sativa cv. Nihonbare (rice) planted 3 cm depth measured after […]; assay type: organism-based; conditions: in vivo
Sagittaria pygmaea = experiment: Herbicide activity against Sagittaria pygmaea under greenhouse condition compound treated at 0.5 leaf-stage measured after 14 to 20 days; assay type: functional
[4] = test system: Schoenoplectiella juncoides; experiment: Herbicide activity against Schoenoplectiella juncoides under greenhouse condition compound treated at emergence-stage measured after 14 to 20 days; assay type: functional
Echinochloa oryzicola [5] = experiment: Herbicide activity against Echinochloa oryzicola under greenhouse condition compound treated at 2 leaf-stage measured after 14 to 20 days; assay type: functional

| SMILES | MED (Echinochloa oryzicola [1]) | MTD (Oryza sativa [2]) | MTD (Oryza sativa [3]) | MED (Sagittaria pygmaea) | MED [4] | MED (Echinochloa oryzicola [5]) |
| --- | --- | --- | --- | --- | --- | --- |
| CC1=C(c2ccccc2)C(=O)N(C(C)(C)c2nc3c(Cl)cccc3s2)C1 | 1.25 g/acre | > 5 g/acre | 10 g/acre | 80 g/acre | 80 g/acre | 5 g/acre |
| CC1=C(c2ccccc2)C(=O)N(C(C)(C)c2nc3ccc(F)cc3s2)C1 | 5 g/acre | 5 g/acre | 20 g/acre | 40 g/acre | 40 g/acre | <5 g/acre |
| CCOc1ccc2nc(C(C)(C)N3CC(C)=C(c4ccccc4)C3=O)sc2c1 | 1.25 g/acre | 5 g/acre | 10 g/acre | 80 g/acre | 160 g/acre | <5 g/acre |
| CC1=C(c2ccccc2)C(=O)N(C(C)(C)c2nc3ccc(I)cc3s2)C1 | 5 g/acre | 20 g/acre | 10 g/acre | 20 g/acre | 20 g/acre | <5 g/acre |
| CC(=O)OC1=C(c2ccccc2)C(=O)N(C(C)(C)c2nc3ccccc3s2)C1 | 80 g/acre | < 20 g/acre | < 20 g/acre | 80 g/acre | 80 g/acre | <5 g/acre |
| CC1=C(c2cccnc2)C(=O)N(C(C)(C)c2nc3ccccc3s2)C1 | 2.5 g/acre | 5 g/acre | 10 g/acre | <5 g/acre | 2.5 g/acre | <5 g/acre |
| CC1=C(c2ccc(-c3ccccc3)cc2)C(=O)N(C(C)(C)c2nc3ccccc3s2)C1 | <10 g/acre | 80 g/acre | 80 g/acre | 160 g/acre | 160 g/acre | <5 g/acre |
| CC1=C(c2ccccc2)C(=O)N(C(C)(C)c2ccsc2)C1 | 5 g/acre | 20 g/acre | 40 g/acre | 20 g/acre | 5 g/acre | <10 g/acre |
| CC1=C(c2ccccc2F)C(=O)N(C(C)(C)c2nc3ccccc3s2)C1 | 0.156 g/acre | 5 g/acre | 10 g/acre | 20 g/acre | 10 g/acre | 2.5 g/acre |
| CC1=C(c2ccccc2)C(=O)N(C(C)(C)c2nc3ccc(C)cc3s2)C1 | 10 g/acre | 5 g/acre | 20 g/acre | 20 g/acre | 80 g/acre | <5 g/acre |
| CC1=C(c2cccc([N+](=O)[O-])c2)C(=O)N(C(C)(C)c2nc3ccccc3s2)C1 | 160 g/acre | 80 g/acre | 80 g/acre | 160 g/acre | 160 g/acre | <5 g/acre |
| CC1=C(c2ccccc2)C(=O)N(C(C)(C)c2nc3cc(C)ccc3s2)C1 | 10 g/acre | 2.5 g/acre | 40 g/acre | 10 g/acre | 20 g/acre | <5 g/acre |
| CCC1=C(c2ccccc2)C(=O)N(C(C)(C)c2nc3ccccc3s2)C1 | 0.313 g/acre | 20 g/acre | 40 g/acre | 80 g/acre | 10 g/acre | 5 g/acre |
| CC1=C(c2ccccc2)C(=O)N(C(C)(C)c2nc3cc(C(=O)O)ccc3s2)C1 | 80 g/acre | 10 g/acre | 20 g/acre | 80 g/acre | 80 g/acre | <5 g/acre |
| CC1=C(c2ccccc2)C(=O)N(C(C)(C)c2cc3ccccc3o2)C1 | 0.313 g/acre | 10 g/acre | 20 g/acre | 80 g/acre | 80 g/acre | 2.5 g/acre |
